Data published in article PMC3086427 (Clinical cancer research : an official journal of the …, 2008).
Read-outs that look alike come from different tables or passages of the source.

Columns and labels:
[1] = Plasma pharmacokinetics of EKB-569 and its N-desmethyl metabolite at the MTD
[2] = in vivo
clinical = conditions: human, in vivo, po; for half-life: T1/2
[3] = cited from earlier work
colorectal cancer = conditions: 5-FU chemotherapy regimens, advanced-stage CRC; cited from earlier work
[4] = p.o., continuous schedule, cited from earlier work
phosphorylated EGFR = conditions: 25 mg EKB-569 with full-dose Irinotecan and infusional 5-FU; cited from earlier work

SMILES: CCOc1cc2ncc(C#N)c(Nc3ccc(F)c(Cl)c3)c2cc1NC(=O)/C=C/CNC [N-desmethyl EKB-569]
- AUC ([1]; human, in vivo, po): 64.4 ± 43.3 ng·h/mL
- Cmax ([1]; human, in vivo, po): 4.2 ± 3.2 ng/mL
- T1/2 ([1]; human, in vivo, po): 24.1 ± 9.2 h
- Tmax ([1]; human, in vivo, po): 3.5 (2–6) h

SMILES: C[C@H]1O[C@@H](n2cc(F)c(=O)[nH]c2=O)[C@H](O)[C@@H]1O [5′-DFUR, 5′-deoxy-5-fluorouridine]
- increase in AUC[0-t] in combination with EKB-569 versus capecitabine alone ([2]; human): 28%
- increase in AUC[0-∞] in combination with EKB-569 versus capecitabine alone ([2]; human): 31%
- half-life (clinical): 0.72 ± 0.14 h
- Tmax (clinical): 2 h

SMILES: O=c1[nH]cc(F)c(=O)[nH]1 [5-FU, 5-fluorouracil]
- increase in 5-FU exposure with continual administration of capecitabine ([3]; alone or with other anticancer agents, from no increase upward): ≤ 83%
- interpatient variability of 5-FU AUC ([3]; continued daily dosing of capecitabine, day 14): 85%
- AUC of 5-FU on day 14 higher than after a single dose ([3]; continued daily dosing of capecitabine): 34%
- objective response rate (colorectal cancer): ~ 20%
- increase in AUC[0-t] in combination with EKB-569 versus capecitabine alone ([2]; human): 88%
- increase in AUC[0-∞] in combination with EKB-569 versus capecitabine alone ([2]; human): 81%
- T1/2 ([2]; human, po): 0.73 ± 0.17 h
- Tmax ([2]; human, po): 2.00 (0.50–4.00) h

SMILES: CCCCCOC(=O)Nc1nc(=O)n([C@@H]2O[C@H](C)[C@@H](O)[C@H]2O)cc1F [capecitabine, reference compound]
- mean terminal half-life ([2]; human): half an hour
- time at which Cmax was observed after p.o. administration ([2]; human, po): 1 h
- difference of pharmacokinetic variables, monotherapy vs combination therapy [2]: no statistically significant difference
- half-life (clinical): 0.52 ± 0.17 h
- Tmax (clinical): 1 h
- dose reductions of the agent secondary to diarrhea (human, in vivo): 60%
- MTD of capecitabine combined with EKB-569 (twice daily for 14 days of a 21-day cycle, with EKB-569 50 mg daily): 1,000 mg/m^2

SMILES: CCOc1cc2ncc(C#N)c(Nc3ccc(F)c(Cl)c3)c2cc1NC(=O)/C=C/CN(C)C [EKB-569]
- well-tolerated dose, single agent ([4]; patients with advanced solid tumors): up to 75 mg per day
- principal toxicities, single agent [4]: diarrhea and skin rash
- Cl/F (oral clearance) ([1]; day 8, 50 mg EKB-569 p.o. daily with 1,000 mg/m^2 capecitabine, mean ± SD): 57 ± 24 L/h
- coefficient of variation values for Cmax and AUC (intersubject variability) ([1]; day 8, MTD): < 40%
- half-life ([1]; human, plasma, po): 16.6 ± 3.7 h
- patients who required a dose reduction of the agent at the MTD (EKB-569 50 mg daily and capecitabine 1,000 mg/m^2 twice daily): four
- MTD of EKB-569 combined with capecitabine (daily, p.o., 21-day cycle, with capecitabine 1,000 mg/m^2 twice daily): 50 mg
- inhibition of phosphorylated EGFR and downstream signaling pathways in skin and tumor samples (phosphorylated EGFR): complete inhibition
